One data set deals with mice. Nature of the data set: Animal toxicity test in mice transplanted with Meth A cells. Type of data set: in vivo, mouse. The note with it: intravenous on days 1, 5, 9, observed for three weeks. As for the experimental part:
Also, the toxicity of known phenanthroindolizidine alkaloid compounds in mice, namely (12aS,13S)-6,7-dimethoxy-9,10,11,12,12a,13-hexahydro-9a-aza-cyclopenta[b]triphenylene-3,13-diol (known compound 1; refer to WO01/023384) and (12aS,13S)-3,6,7-trimethoxy-9,10,11,12,12a,13-hexahydro-9a-aza-cyclopenta[b]triphenylene-13-ol (known compound 2; refer to Planta Med., 2002, 68: 186-188), was simultaneously studied. To a control group, a physiological saline solution as a solvent, was administered.

In data set [1] the test system is human colon cancer SW480 cells. Nature of the data set: Inhibitory action on the proliferation of SW480 cells. The class given is cell-based. The conditions noted are these: 48 hours culture, TetraColor ONE; for IC50: Homo sapiens, SW480. As for the experimental part: (§1) The action of the phenanthroindolizidine alkaloid compound of the present invention on the proliferation of human colon cancer SW480 cells, HT-29 cells, and human non-small cell lung cancer A549 cells was studied. The SW480 cells were suspended in a 10% FBS/RPMI1640 and then seeded in a 96-well microplate, followed by culturing in 5% CO2 at 37° C. (2000 cells/well). The A549 cells and the HT-29 cells were each suspended in a DMEM medium containing 10% FBS, 100 U/mL penicillin, and 100 μg/mL streptomycin (10% FBS/DMEM) and a DMEM F-12 HAM medium containing 10% FBS, 100 U/mL penicillin, and 100 μg/mL streptomycin (10% FBS/DMEM F12 HAM), and then seeded in 96-well microplates, followed by culturing in 5% CO2 at 37° C. (1000 cells/well). After an overnight culture, the compound of the present invention was added, followed by further culturing for 48 hours (SW480 cells) and 96 hours (A549 cells and HT-29 cells). After culturing, the number of viable cells was counted using TetraColor ONE (Seikagaku Corporation) in accordance with the attached operating procedure. The results were expressed as the concentration of a test compound needed for 50% inhibition of the proliferation of the cells (IC50).

A further data set has as its system NFκB. Nature of the data set: NFκB luciferase reporter assay in SW480/NRE-Luc cells stimulated with TNFα. Type of data set: cell-based, human. The conditions noted are these: for NFκB inhibitory activity IC50: SW480/NRE-Luc cells, 50 ng/mL TNFα, luciferase expression; for IC50: Homo sapiens, SW480, read-out: NFκB inhibitory activity IC50. The source says:
(§2) The action of the phenanthroindolizidine alkaloid compound of the present invention on the NFκB activity was studied in a luciferase assay. Human colon cancer SW480 cells were transfected with pNFκB-Luc Plasmid (Stratagene), which is a reporter vector in which a five-time tandem repeat of the NFκB responsive element (NRE) is integrated into the upstream of the luciferase gene, using Lipofectamine 2000 (Invitrogen Corporation) in accordance with the attached operating procedure. Subsequently, the cells were cultured in an RPMI1640 medium containing 10% FBS, 100 U/mL penicillin, 100 μg/mL streptomycin, and 0.5 mg/mL G418 to produce SW480 cells having the luciferase gene, the expression of which is regulated by NRE, stably introduced therein (SW480/NRE-Luc cells). Likewise, SW480 cells were transfected with pGL3-Control Vector (Promega Corporation), which is a reporter vector in which the SV40 promoter is integrated into the upstream of the luciferase gene, to produce SW480 cells having the luciferase gene, the expression of which is regulated by the SV40 promoter, stably introduced therein (SW480/SV40-Luc cells). The SW480/NRE-Luc cells or the SW480/SV40-Luc cells were suspended in an RPMI1640 medium containing 10% FBS, 100 U/mL penicillin, and 100 μg/mL streptomycin (10% FBS/RPMI1640), and then seeded in a 96-well microplate, followed by culturing under conditions of 5% CO2 and at 37° C. (5000 cells/well). After an overnight culture, the compound of the present invention was added, followed by culturing for one hour. Further, 50 ng/mL TNFα (Sigma-Aldrich Corporation) was added, followed by culturing for four hours. Subsequently, a Steady-Glo Luciferase Assay reagent (Promega Corporation) was added, and the luminescent intensity was detected by SpectraMax M5e (Molecular Devices, Inc.) to measure the intracellular luciferase activity. It is to be noted that the action of the compound of the present invention on the NFκB activity or the SV40 promoter activity was shown as IC50 values (the concentration of a test compound needed for 50% inhibition of the induction of the luciferase expression).
(In general: In a reporter assay the amount or activity of a reporter protein is the signal.)

In the next data set the test system is SV40 promoter. Nature of the data set: SV40 promoter luciferase reporter assay in SW480/SV40-Luc cells. The class given is cell-based, human. The conditions noted are these: for SV40 promoter inhibitory activity IC50: SW480/SV40-Luc cells, luciferase expression; for IC50: Homo sapiens, SW480, read-out: SV40 promoter inhibitory activity IC50.
Source text: as §2

Data set [2] has as its system human colon cancer HT-29 cells. Kind of data set: Inhibitory action on the proliferation of HT-29 cells. Type of data set: cell-based. The conditions noted are these: 96 hours culture, TetraColor ONE; for IC50: Homo sapiens, HT-29. As for the experimental part: as §1
The test system of data set [3] is human non-small cell lung cancer A549 cells. Kind of data set: Inhibitory action on the proliferation of A549 cells. The conditions noted are these: 96 hours culture, TetraColor ONE; for IC50: Homo sapiens, A549. Type of data set: cell-based. As for the experimental part: as §1

Bounds are passed on as bounds.

For `COc1cc2c3c(c4ccc(O)cc4c2cc1OC)[C@H](OC(C)=O)[C@@H]1CCCN1C3.Cl` [Compound 5, acetic acid(12aS,13S)-3-hydroxy-6,7-dimethoxy-9,10,11,12,12a,13-hexahydro-9a-aza-cyclopenta[b]triphenylene-13-yl ester hydrochloride], the Mortality rate with mice (total dose 25 mg/kg) and with mice (total dose 50 mg/kg) was 0/5 throughout. Moreover, the “SW480 proliferation inhibitory action IC50” value in data set [1] amounted to 0.005 µg/mL. Also, the “NFκB inhibitory activity IC50” value with NFκB worked out at 0.027 µg/mL. Also, the “SV40 promoter inhibitory activity IC50” value with SV40 promoter is above 0.1 µg/mL. The “HT-29 proliferation inhibitory action IC50” value in data set [2] worked out at 0.0023 µg/mL. In addition, the “A549 proliferation inhibitory action IC50” value in data set [3] was determined as 0.0005 µg/mL.

As usually defined, the IC50 is the midpoint of a concentration-inhibition curve. For the molecule `COc1cc2c3c(c4ccc(O)cc4c2cc1OC)C(O)C1(C)CCCN1C3.Cl` (stereo not drawn) [Compound 6, 6,7-dimethoxy-12a-methyl-9,10,11,12,12a,13-hexahydro-9a-aza-cyclopenta[b]triphenylene-3,13-diol hydrochloride], the Mortality rate in the data set on mice (total dose 25 mg/kg) and in the data set with mice (total dose 50 mg/kg) was 0/5 throughout. In addition, the half-inhibitory concentration (IC50) in data set [1] was 3.12 µg/mL; with NFκB, 1.92 µg/mL; in the data set on SV40 promoter, above 10 µg/mL; in data set [2], 0.839 µg/mL; in data set [3], 0.757 µg/mL.

Take `Cl.Oc1ccc2c3c(c4cc5c(cc4c2c1)OCO5)CN1CCC[C@H]1[C@H]3O` [Compound 8, (12aS,13S)-6,7-methylenedioxy-9,10,11,12,12a,13-hexahydro-9a-aza-cyclopenta[b]triphenylene-3,13-diol hydrochloride]: the Mortality rate in the data set on mice (total dose 25 mg/kg) and with mice (total dose 50 mg/kg) was 0/5 throughout. Moreover, the half-maximal inhibitory concentration (IC50) in data set [1] is 0.0267 µg/mL; with NFκB it was 0.0084 µg/mL; in the data set with SV40 promoter, above 10 µg/mL; in data set [2] it was 0.0469 µg/mL; in data set [3], 0.0193 µg/mL.

Regarding `CC1(C)Oc2cc3c4c(c5ccc(O)cc5c3cc2O1)[C@H](O)[C@@H]1CCCN1C4.Cl` [Compound 9, (12aS,13S)-6,7-isopropylidenedioxy-9,10,11,12,12a,13-hexahydro-9a-aza-cyclopenta[b]triphenylene-3,13-diol hydrochloride], the Mortality rate with mice (total dose 25 mg/kg) and in the data set with mice (total dose 50 mg/kg) was 0/5 throughout. Further, the “SW480 proliferation inhibitory action IC50” value in data set [1] stood at 1.955 µg/mL. For the same molecule, the “NFκB inhibitory activity IC50” value in the data set with NFκB is 0.5216 µg/mL. Besides, in the data set on SV40 promoter, the “SV40 promoter inhibitory activity IC50” value is above 10 µg/mL. In addition, the “HT-29 proliferation inhibitory action IC50” value in data set [2] is 0.184 µg/mL. Moreover, in data set [3], the “A549 proliferation inhibitory action IC50” value worked out at 0.3502 µg/mL.

For the molecule `CCOc1cc2c3c(c4ccc(O)cc4c2cc1OCC)[C@H](O)[C@@H]1CCCN1C3.Cl` [Compound 10, (12aS,13S)-6,7-diethoxy-9,10,11,12,12a,13-hexahydro-9a-aza-cyclopenta[b]triphenylene-3,13-diol hydrochloride], the Mortality rate with mice (total dose 25 mg/kg) and in the data set on mice (total dose 50 mg/kg) was 0/5 each time. Further, the half-inhibitory concentration (IC50) in data set [1] was 0.0067 µg/mL; in the data set on NFκB it was 0.0041 µg/mL; with SV40 promoter it was above 0.1 µg/mL; in data set [2], 0.00047 µg/mL; in data set [3], 0.00027 µg/mL.

For `COc1cc2c3c(c4ccc(O)cc4c2cc1OC)CN1CCC[C@H]1[C@H]3O.Cl` [Compound 15, (12aS,13S)-2,3-dimethoxy-9,10,11,12,12a,13-hexahydro-9a-aza-cyclopenta[b]triphenylene-6,13-diol hydrochloride], the Mortality rate in the data set on mice (total dose 25 mg/kg) and in the data set with mice (total dose 50 mg/kg) was 0/5 in each case. For the same molecule, the half-inhibitory concentration (IC50) was 0.0042 µg/mL in data set [1]; 0.002 µg/mL with NFκB; above 10 µg/mL in the data set on SV40 promoter; 0.0566 µg/mL in data set [2]; 0.034 µg/mL in data set [3].

(Values after US9174979B2, “Phenanthroindolizidine compound and NFκB inhibitor containing same as active ingredient” (KABUSHIKI KAISHA YAKULT HONSHA, priority 2008, dated 2015).)
